# How the values were obtained:
# [1] = Calcein dye leakage from bacteria-mimicking LUVs; assay type: biochemical; details: LUVs 10 µM phospholipid, 10 mM Tris, 100 mM NaCl pH 7.4, 5 min, fluorescence 496/515 nm, no-peptide control 28.5, average of duplicate experiments
# Protocol: A calcein leakage assay as previously described was performed to determine the effects of PIN-based peptides on the permeability of synthetic large unilamellar vesicles (LUVs), designed to mimic bacterial and mammalian cell membranes. The phospholipids used were DOPC (1,2-dioleoyl-sn-glycero-3-phosphocholine), with zwitterionic head groups and DOPG (1,2-dioleoyl-sn-glycerol-3-[phosphor-rac-(1-glycerol)]), with negatively charged headgroups (Avanti® Polar lipids, Alabaster, USA). These were used to make DOPC:DOPG (1∶3) LUVs to mimic bacterial cell membranes, or DOPC only, to mimic mammalian cell membranes. Calcein-entrapped LUVs were prepared by the extrusion method using an Avanti mini extrusion apparatus (Avanti® Polar Lipids, Alabaster, USA). The DOPC:DOPG (a 1∶3 mixture) or DOPC were dissolved in chloroform (25 mg/mL) and aliquoted into glass test tubes to give a concentration of 2.6 mM when resuspended in 2 mL buffer. Chloroform was evaporated under a stream of N2 and the lipid films were dried overnight under vacuum. The films were then resuspended in 2.0 mL of 70 mM calcein buffer (in 10 mM Tris-HCl, pH 7.4) and incubated at room temperature for 30 minutes. To increase entrapment of the dye, five repeated freeze\thaw cycles were used by placing the vial in liquid N2 and then a warm water bath (37°C). The lipid mixture was then extruded through the mini-extruder 10 times through two stacked 0.1 µm pore-size filters. Free calcein was removed by centrifugation (10, 000×g, 10 min) three times and washing with 10 mM Tris, 100 mM NaCl buffer (pH 7.4). Standards of phosphorus (inorganic P; Pi) were prepared (0.05–1.5 mg/mL) using KH2PO4 and read at 820 nm and a linear standard curve was generated (Figure S1 in File S1). The phospholipid concentration of the vesicle preparations was determined by a total phosphorus assay. The assay reagent was prepared fresh by mixing 1 part of 1% ascorbic acid with 6 parts of 0.42% ammonium molybdate•4H2O in H2SO4 and stored on ice. 7 µL of it was added to 3 µL of vesicle suspensions and incubated for 20 min at 45°C. […] The standard curve of phosphorus standards (Figure S1 in File S1) was used to determine the Pi concentration in a LUV preparation, and this was converted to phospholipid concentration (Table S1 in File S1) to adjust the preparations to the required 10 µM phospholipid concentration prior to peptide treatment.
# The calcein-filled LUVs were diluted with 10 mM Tris, 100 mM NaCl buffer (pH 7.4) to a final phospholipid concentration of 10 µM. The experiments were performed in a Varian Cary Eclipse fluorescence spectrophotometer with excitation and emission wavelengths of 496 nm and 515 nm, slit widths of […] and a PMT detector of 600 V. The peptides (PuroA, Pina-M, Pina-W→F and PuroB) were added to LUVs to a final peptide concentration of 8–125 µg/mL in 100 µL volumes and the fluorescence (F) monitored for 5 min at 60 s intervals. The total calcein fluorescence (FT) was determined by addition of 1.0% Triton X100. The dye leakage was calculated as % Leakage = ((F – F0)/(FT – F0)), F0 being fluorescence of each sample at T = 0.
# [2] = system: Saccharomyces cerevisiae (ATCC 287); test: MIC of the peptides against yeast cells; assay type: cell-based; details: PDB, 96-well two-fold dilution 250 to 2 µg/mL, 0.5–2×10^3 cells/mL, overnight 30°C, growth observed visually
# Protocol: Saccharomyces cerevisiae (ATCC 287) was grown in Potato Dextrose Broth (PDB) overnight at 30°C with shaking at 220 rpm. The cultures were vortexed vigorously and the cell suspension adjusted to 1–5×10^6 cells/mL with PDB (McFarland standard 0.5) and then diluted 1∶200 with PDB to a final concentration of 0.5–2×10^3 cells/mL [37]. The MIC assays were carried out in 96-well plates as described previously. Peptides (PuroA, Pina-M, Pina-W→F and PuroB) in 25 µL volumes were added to the first empty well and a two-fold dilution was carried out across each row with a starting peptide concentration of 250 µg/mL and a final one of 2 µg/mL. Test wells were subsequently inoculated with 75 µL yeast cells (0.5–2×10^3 cells/mL) and incubated overnight at 30°C. Negative control (no peptide) and positive control (fungicide Mycobutanil) wells were also prepared. The MIC was defined as the lowest concentration of the peptide required to inhibit fungal growth, observed visually.
# [3] = system: S. cerevisiae cells; test: SEM of peptide-treated yeast cells; assay type: cell-based, Saccharomyces cerevisiae; details: sub-MIC: PuroA and Pina-M 64 µg/mL, Pina-W→F 125 µg/mL; 1 h 30°C
# Protocol: S. cerevisiae cultures were grown overnight in 5.0 mL of PDB 30°C, to OD600 = 1.2–1.8 (∼5×10^7 cells/mL). 75 µL aliquots of the yeast cell suspension were incubated with 25 µL of PuroA, Pina-M, Pina-W→F or PuroB (at final concentrations of 0.5×, 1× or 2× of the respective MIC for S. cerevisiae; see results) for 1 h at 30°C. The cells were collected by centrifugation (1000×g, 5 min), the pellets washed three times in PBS (pH 7.4) and resuspended in 100 µL MilliQ (ultra-pure) water. A 25 µL aliquot of the cell suspension was spotted onto a glass slide, air-dried, then fixed and dehydrated as described previously. In brief, the air-dried slides were fixed in 2.5% glutaraldehyde (in PBS, pH 7.4) overnight in a humid chamber, then washed with PBS pH 7.4 for 10 min, and dehydrated in an ethanol gradient of 50%, 60%, 70%, 80%, 90% and 100%. The slides were freeze-dried overnight and then coated in a Dynavac CS300 coating unit with carbon and gold, with double sided conducting carbon tape attached to the slides for better conductivity. The samples were analysed using a ZEISS supra 10 VP field emission scanning electron microscope (Carl Zeiss Microscopy, NY, USA) at 3.0 kV.
substance,measurement,setting,value
"FPVTFRFFKFFKG-NH2 [Pina-W→F, PuroA-based peptide with all Trps substituted with Phe residues]",% Calcein leakage from DOPC:DOPG LUVs,[1]; peptide 8 µg/mL,29.2%
same,% Calcein leakage from DOPC:DOPG LUVs,[1]; peptide 16 µg/mL,32.0%
same,% Calcein leakage from DOPC:DOPG LUVs,[1]; peptide 32 µg/mL,64%
same,% Calcein leakage from DOPC:DOPG LUVs,[1]; peptide 64 µg/mL,78.0%
same,% Calcein leakage from DOPC:DOPG LUVs,[1]; peptide 125 µg/mL,81.0%
same,MIC against S. cerevisiae,[2],250 µg/mL
same,surface morphology of yeast cells (SEM) at sub-MIC level,[3],shallow pits or pores on the surface
